How the values were obtained:
[1] = target: T1, ICl,SWELL (SWELL1-LRRC8 channel) in HEK-293 cells (Homo sapiens, UniProt Q8IWT6); assay: ICl,SWELL inhibition after hypotonic activation (open channel), patch-clamp; type: cell-based; settings: HEK-293 cells; for IC50: hypotonic (210 mOsm) stimulation, outward current, compound applied at 30 pA/pF, read-out: IC50 for ICl,SWELL inhibition
T1 construct: applied when the endogenous HEK-293 cell ICl,SWELL current density reached 30 pA/pF; endogenous in cells; host or cells: HEK-293 (ATCC, #CRL-1573)
T1 sequence (Q8IWT6 1-810): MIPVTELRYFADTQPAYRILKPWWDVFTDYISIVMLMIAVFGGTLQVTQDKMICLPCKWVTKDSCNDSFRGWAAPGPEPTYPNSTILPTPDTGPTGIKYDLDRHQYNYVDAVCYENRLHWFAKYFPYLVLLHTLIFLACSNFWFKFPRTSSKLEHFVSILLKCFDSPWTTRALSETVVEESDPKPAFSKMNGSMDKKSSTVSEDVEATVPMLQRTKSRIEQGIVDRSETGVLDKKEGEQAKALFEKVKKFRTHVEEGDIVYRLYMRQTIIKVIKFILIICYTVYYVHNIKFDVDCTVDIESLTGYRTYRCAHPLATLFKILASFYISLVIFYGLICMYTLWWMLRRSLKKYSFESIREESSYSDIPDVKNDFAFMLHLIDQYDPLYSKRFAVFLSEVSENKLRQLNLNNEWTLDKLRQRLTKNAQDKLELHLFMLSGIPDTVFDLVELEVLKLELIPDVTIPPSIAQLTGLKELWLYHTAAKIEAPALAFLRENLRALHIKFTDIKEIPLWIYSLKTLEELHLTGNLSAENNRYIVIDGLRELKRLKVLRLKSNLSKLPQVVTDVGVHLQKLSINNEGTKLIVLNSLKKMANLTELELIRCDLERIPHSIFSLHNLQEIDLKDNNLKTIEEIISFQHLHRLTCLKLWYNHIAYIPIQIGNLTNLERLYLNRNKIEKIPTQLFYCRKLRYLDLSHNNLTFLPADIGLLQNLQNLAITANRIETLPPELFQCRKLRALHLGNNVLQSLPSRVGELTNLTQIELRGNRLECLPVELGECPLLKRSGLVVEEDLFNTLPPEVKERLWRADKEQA
Method: Patch-clamp recordings of β-cells, 3T3-F442A adipocytes, and mature human adipocytes were performed as described previously[24],[28]. Briefly, all patch-clamp experiments were conducted at room temperature using either an Axopatch 200B amplifier or a MultiClamp 700B amplifier paired to a Digidata 1550 digitizer. Data were acquired using pClamp 10.4 software. For hypotonic swelling, extracellular solution consisted of the following (in mM): 90 NaCl, 2 CsCl, 1 MgCl2, 1 CaCl2, 10 HEPES, 10 mannitol, pH 7.4 with NaOH (210 mOsm/kg). The isotonic extracellular solution consisted of the same composition above but with 110 mM instead of 10 mM mannitol (300 mOsm/kg). The swell-activated current was elicited by perfusing cells with a hypotonic solution (210 mOsm/kg). […] For perforated-patch recordings in isolated human adipocytes, the intracellular solution was as above but without ATP and GTP, and contained 360 μg/ml Amphotericin B (Sigma). The holding potential was 0 mV. Voltage ramps from −100 to +100 mV (at 0.4 mV/ms) were applied every 4 s. The sampling interval was 100 μs and filtered at 10 kHz. For perforated-patch recordings, cells with a membrane resistance below 1 GΩ or access resistance above 20 MΩ were discarded. […]

[2] = system: T2, SWELL1 protein in 3T3-F442A adipocytes; assay: SWELL1 protein western blot in adipocytes; type: cell-based, murine; settings: 10 and 1 μM, 4 days, then 6 h serum starving
T2 construct: host or cells: 3T3-F442A preadipocytes and differentiated adipocytes (wild type)
Method: (§1) In the case of 3T3-F442A adipocytes, the WT and KO cells were treated with either vehicle (DMSO), 1 or 10 µM SN-40X (after 7–11 days of differentiation) for 96 h and then stimulated with 0 and 10 nM insulin/serum-containing media with vehicle (DMSO) or SN-40X for 15 min for SWELL1 detection. […] To simulate glucolipotoxicity, 8 mM sodium palmitate was dissolved in 18.4% fatty-acid free BSA at 37 °C in DMEM medium with 25 mM glucose to obtain a conjugation ratio of 1:3 palmitate:BSA[80].
Adipocytes were washed twice in ice-cold phosphate buffer saline and lysed in RIPA buffer (150 mM NaCl, 20 mM HEPES, 1% NP-40, 5 mM EDTA, pH 7.4) with proteinase/phosphatase inhibitors (Roche). The cell lysate was further sonicated in 10 s cycle intervals 2–3 times and centrifuged at 18,407×g for 30 min at 4 °C and repeated one more time to remove the excess fat. The supernatant was collected and further estimated for protein concentration using a DC protein assay kit (Bio-Rad). Fat and liver tissues were homogenized and suspended in RIPA buffer with inhibitors and further processed in a similar fashion as described above. HUVECs were also prepared in a similar fashion except the lysates were spun only once to remove the cells debris to obtain the clear supernatant. For islets, either human or mouse islets were washed twice with phosphate buffer saline (PBS) and lysed using RIPA buffer containing protease and phosphatase inhibitors. The lysate was further clarified by freezing in liquid nitrogen for about 10 s for three cycles. The supernatant was collected from the whole lysate centrifuged at 16,260×g for 20 min at 4 °C. […] For soleus muscle, the tissue was homogenized in a Bullet Blender homogenizer (Speed-9, Time-3 mins) in 8 volumes of ice-cold muscle homogenization buffer (50 mM Tris, 25 mM NaCl, 0.2% Nonidet P-40, 5 mM EGTA, 2.5 mM EDTA, 20 mM NaF, 20 mM Na4P2O7·10H2O, 2 mM Na3VO4, pH 7.4) supplemented with protease/phosphatase inhibitor (Roche). The homogenized lysate was centrifuged two times at 18,500×g for 20 min at 4 °C and supernatant was collected for protein estimation. Protein samples were further prepared by boiling in 2X or 4X Laemmli buffer. Approximately 10–60 µg of total protein was loaded in 4–15% gradient gel (Bio-Rad) for separation and protein transfer was carried out onto the PVDF membranes (Bio-Rad). Membranes were blocked in 5% BSA (or 5% milk for SWELL1) in TBST buffer (0.2 M Tris, 1.37 M NaCl, 0.2% Tween-20, pH 7.4) for 1 h and incubated with appropriate primary antibodies (5% BSA or milk) overnight at 4 °C. […] The images were further analyzed for band intensities using ImageJ software. […]

[3] = system: T2, SWELL1 protein in 3T3-F442A adipocytes; assay: SWELL1 protein under glucolipotoxic stress (palmitate + glucose); type: cell-based, murine; settings: 10 µM 96 h pretreatment, then 1 mM palmitate + 25 mM glucose 16 h
Method: as §1

[4] = system: T2D and non-T2D mice; assay: Metabolic phenotyping: fasting glucose, GTT, ITT; settings: compared to Inactive 1
Method: All compounds were dissolved in Kolliphor® EL (Sigma, #C5135).
(§2) Mice were fasted for 6 h prior to glucose tolerance tests (GTT). Baseline glucose levels at 0 min timepoint (fasting glucose, FG) were measured from a blood sample collected from tail snipping using glucometer (Bayer Healthcare LLC). Either 1 or 0.75 g D-Glucose/kg body weight were injected (i.p.) for lean or HFD mice, respectively and glucose levels were measured at 5 or 7, 15, 30, 60, 90, and 120 min timepoints after injection. For insulin tolerance tests (ITTs), the mice were fasted for 4 h. Similar to GTTs, the baseline blood glucose levels were measured at 0 min timepoint and 15, 30, 60, 90, and 120 min timepoints post-injection (i.p.) of insulin (HumulinR, 1 U/kg bodyweight for lean mice or 1.25 U/kg body weight for HFD mice). […] The collected plasma was then measured for insulin content by using Ultra-Sensitive Mouse Insulin ELISA Kit (Crystal Chem, #90080). All mouse studies were performed in a blinded fashion.

[5] = target: T3, R103E-SWELL1 expressing HEK-293 cells (R103E O/E) (Homo sapiens, UniProt Q8IWT6, R103E); assay: ICl,SWELL inhibition in SWELL1-R103E overexpressing cells, patch-clamp; type: cell-based; settings: R103E-SWELL1 overexpressing HEK-293 cells, compound applied at maximum current density; read-out: IC50 for ICl,SWELL inhibition, R103E O/E
T3 construct: P2A:EGFP (C); host or cells: HEK-293, Lipofectamine 2000, co-transfected with CMV-Cre; EGFP+ cells recorded
T3 sequence (Q8IWT6 whole entry R103E): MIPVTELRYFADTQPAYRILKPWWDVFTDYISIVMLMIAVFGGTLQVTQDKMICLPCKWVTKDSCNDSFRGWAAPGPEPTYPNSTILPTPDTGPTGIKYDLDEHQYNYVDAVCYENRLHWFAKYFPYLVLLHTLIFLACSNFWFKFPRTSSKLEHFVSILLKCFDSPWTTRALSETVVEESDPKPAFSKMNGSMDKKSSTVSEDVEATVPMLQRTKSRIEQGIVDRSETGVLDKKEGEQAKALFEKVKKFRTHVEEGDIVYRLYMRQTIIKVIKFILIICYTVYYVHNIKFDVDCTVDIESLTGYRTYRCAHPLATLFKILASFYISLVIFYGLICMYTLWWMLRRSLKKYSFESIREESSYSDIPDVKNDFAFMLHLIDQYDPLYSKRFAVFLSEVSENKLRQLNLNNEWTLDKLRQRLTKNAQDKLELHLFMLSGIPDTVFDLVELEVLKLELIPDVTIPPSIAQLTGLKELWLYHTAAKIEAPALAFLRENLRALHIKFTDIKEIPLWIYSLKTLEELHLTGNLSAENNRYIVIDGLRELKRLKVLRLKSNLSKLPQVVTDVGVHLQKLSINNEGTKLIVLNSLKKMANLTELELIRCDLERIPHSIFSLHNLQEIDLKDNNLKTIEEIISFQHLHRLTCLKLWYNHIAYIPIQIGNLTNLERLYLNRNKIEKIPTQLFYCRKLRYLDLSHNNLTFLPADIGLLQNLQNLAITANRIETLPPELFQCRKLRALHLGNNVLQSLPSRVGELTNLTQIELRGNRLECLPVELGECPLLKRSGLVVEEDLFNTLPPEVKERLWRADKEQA
From the text: See also Fig. 6 for a schematic representation. […] For SWELL1-R103E overexpression experiments, HEK-293 cells were transfected with either control Cre plasmid (CMV-Cre, McDonnell Genome Institute in Washington University in St. Louis) or Cre plus R103E-GFP (CAG-LoxP-stop-LoxP-SWELL1-R103E/3XFlag:P2A:EGFP, Vector Biolabs) plasmid using Lipofectamine 2000 as per the manufacturer’s protocol. SWELL1-R103E expressing HEK-293 cells were identified by EGFP + fluorescence.

[6] = system: pancreatic islets of T2D mice; assay: Insulin secretion of treated T2D mice (serum insulin, islet perifusion GSIS); type: in vivo, mouse; settings: islets of T2D KKAy mice, compared to Inactive 1
Method: as §2

[7] = target: Mus musculus SWELL1 (LRRC8a, leucine-rich repeat-containing protein 8a) (Mus musculus); assay: cryo-EM structure; SWELL1 in MSP1E3D1 lipid nanodiscs (2:1:1 DOPE:POPC:POPS), 1 mg/mL SWELL1-MSP1E3D1 with 100 µM SN-407; 20 mM HEPES, 150 mM KCl, pH 7.4; C6 refinement, then symmetry expansion and relaxation
[8] = 8 weeks HFD mice, 5 mg/kg/day × 4 days

`O=C(O)CCCOc1cc2c(c(Cl)c1Cl)C(=O)C(C1CCCC1)C2` (stereo not shown) [Inactive 2, 4-((6,7-dichloro-2-cyclopentyl-1-oxo-2,3-dihydro-1H-inden-5-yl)oxy)butanoic acid] was tested. Which IC50 [1] did it give?
Its IC50 is 10.6 µM.

What about the “SWELL1 protein level relative to vehicle-treated controls” value [2] of the same compound?
The value was “did not significantly increase”.

What about the “prevention of palmitate/glucose-induced reduction of SWELL1 protein” value [3] of the same compound?
Its value is “not”.

For `CCCCC1(C2CCCC2)Cc2cc(OCCCB(O)O)c(Cl)c(Cl)c2C1=O` (stereo not shown) [Inactive 3, (3-((2-butyl-6,7-dichloro-2-cyclopentyl-1-oxo-2,3-dihydro-1H-inden-5-yl)oxy)propyl)boronic acid], which IC50 [1] is on record?
The IC50 was 18.3 µM.

Which “ICl,SWELL inhibitory activity compared to SN-401” value [1] does the source give for `CCCCC1(C2CCCC2)Cc2cc(OCCCCC(=O)O)c(Cl)c(Cl)c2C1=O` (stereo not shown) [SN-403, 5-((2-butyl-6,7-dichloro-2-cyclopentyl-1-oxo-2,3-dihydro-1H-inden-5-yl)oxy)pentanoic acid] here?
Its value is “increased ICl,SWELL inhibitory activity”.

And the fasting blood glucose [4, 8]?
Its fasting blood glucose is “significantly reduced”.

And the glucose tolerance [4, 8]?
The glucose tolerance was “improved”.

`CCCCC1(C2CCCC2)Cc2cc(OCCCCCCC(=O)O)c(Cl)c(Cl)c2C1=O` (stereo not shown) [SN-407, 7-((2-butyl-6,7-dichloro-2-cyclopentyl-1-oxo-2,3-dihydro-1H-inden-5-yl)oxy)heptanoic acid] was tested. Which “ICl,SWELL inhibitory activity compared to SN-401” value [1] did it give?
Its value is “increased ICl,SWELL inhibitory activity”.

And the IC50 [1]?
The IC50 was 1.6 µM.

And the IC50 [5]?
Its IC50 is 4.2 µM.

And the “glucose tolerance (GTT AUC)” value ([4]; T2D KKAy mice, 5 mg/kg i.p. 4 days)?
The value was “improved”.

What about the GSIS [6] of the same compound?
The GSIS was “increased”.

For “Mus musculus SWELL1 (LRRC8a, leucine-rich repeat-containing protein 8a) (natural protein)”, which stoichiometry N [7] is on record?
The stoichiometry N was 6.

Reference: paper PMC8831520, “Small molecule SWELL1 complex induction improves glycemic control and nonalcoholic fatty liver disease in murine Type 2 diabetes” (Nature Communications, 2022)
